Data on 25 molecules can be found in PMC4234442 (Journal of Medicinal Chemistry, 2014).

Counter-ions that a name gives are not always drawn. Marks after values point to notes of the source that are not given here. Ends that are not written are not given here.

Assay [1] deals with T1, NPFF2-R (Homo sapiens, UniProt Q9Y5X5). Kind of assay: [35S]GTPγS binding assay, membranes of NPFF2-R expressing CHO cells. Type of assay: biochemical. As to conditions: tested at 10 μM; % maximal activation. Background: GTPγS is a poorly hydrolysed GTP analogue; its binding reports G protein activation.
T1 sequence (Q9Y5X5 whole entry): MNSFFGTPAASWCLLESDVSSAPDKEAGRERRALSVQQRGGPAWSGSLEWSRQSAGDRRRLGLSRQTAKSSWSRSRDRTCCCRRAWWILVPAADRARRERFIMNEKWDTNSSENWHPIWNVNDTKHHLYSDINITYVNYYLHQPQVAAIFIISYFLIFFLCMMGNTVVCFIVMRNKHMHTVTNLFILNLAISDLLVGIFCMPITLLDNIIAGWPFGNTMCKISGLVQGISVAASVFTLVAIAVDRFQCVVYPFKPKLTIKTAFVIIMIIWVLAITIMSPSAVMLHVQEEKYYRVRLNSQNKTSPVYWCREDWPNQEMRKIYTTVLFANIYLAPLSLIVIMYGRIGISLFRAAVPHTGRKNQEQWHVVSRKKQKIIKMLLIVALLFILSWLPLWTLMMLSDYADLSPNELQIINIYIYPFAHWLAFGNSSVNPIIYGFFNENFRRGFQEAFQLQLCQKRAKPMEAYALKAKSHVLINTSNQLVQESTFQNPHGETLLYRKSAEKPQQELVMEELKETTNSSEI
In assay [2] the target is T2, NPFF1-R (Homo sapiens, UniProt Q9GZQ6). Kind of assay: [35S]GTPγS binding assay, membranes of NPFF1-R expressing CHO cells. Type of assay: biochemical. As to conditions: tested at 10 μM; % maximal activation.
T2 sequence (Q9GZQ6 whole entry): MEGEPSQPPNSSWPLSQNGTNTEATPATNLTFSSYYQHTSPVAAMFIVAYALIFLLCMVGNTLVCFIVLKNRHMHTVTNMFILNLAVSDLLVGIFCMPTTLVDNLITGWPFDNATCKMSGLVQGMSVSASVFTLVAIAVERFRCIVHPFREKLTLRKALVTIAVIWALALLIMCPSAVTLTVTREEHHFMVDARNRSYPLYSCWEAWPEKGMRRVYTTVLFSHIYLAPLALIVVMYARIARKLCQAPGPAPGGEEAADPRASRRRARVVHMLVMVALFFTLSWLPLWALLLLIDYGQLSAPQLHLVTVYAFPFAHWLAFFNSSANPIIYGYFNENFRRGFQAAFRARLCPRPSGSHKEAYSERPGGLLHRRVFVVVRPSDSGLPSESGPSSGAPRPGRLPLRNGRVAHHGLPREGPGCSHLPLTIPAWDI
The target of assay [3] is T2, NPFF1-R. It is filed as binding.
In assay [4] the target is T2, NPFF1-R. It is filed as cell-based.
Assay [5] concerns the target T1, NPFF2-R. Type of assay: binding.
Assay [6] concerns the target T1, NPFF2-R. It is filed as cell-based.
The target in assay [7] is T1, NPFF2-R. Type of assay: binding. This is another data set of the same source.
The target in assay [8] is T1, NPFF2-R. The conditions noted are these: cited from earlier work; for selectivity for the hNPFF2 subtype: radioligand competition binding assays.
Assay [9] addresses membrane of rat spinal cord. As to conditions: read-out: Ki in the membrane of rat spinal cord; cited from earlier work.
Assay [10] addresses T2, NPFF1-R. The conditions noted are these: read-out: cAMP hNPFF1-R antagonist activity EC50; data taken from ref 15; cited from earlier work.
In assay [11] the target is T2, NPFF1-R. The conditions noted are these: read-out: hNPFF1-R Ki; radioligand displacement assays; cited from earlier work.

As to `N=C(N)NCCC[C@H](N)C(=O)NCC1(Nc2ccccc2)CCN(Cc2ccccc2)CC1` [7b, 2-Amino-N-((1-benzyl-4-(phenylamino)piperidin-4-yl)methyl)-5-guanidinopentanamide Hydrochloride], the “% stimulation (increase) of [35S]GTPγS binding at NPFF2-R” value on NPFF2-R [1] is 184 ^d %. At NPFF1-R [2], the “% stimulation (increase) of [35S]GTPγS binding at NPFF1-R” value was 36 ^d %.

`N=C(N)NCC(=O)NCC1(Nc2cccc3ccccc23)CCN(Cc2ccccc2)CC1` [30a, N-((1-Benzyl-4-(naphthalen-1-ylamino)piperidin-4-yl)methyl)-2-guanidinoacetamide Tritriflate]: on NPFF1-R [3], the “ratio, preference for NPFF1” value is given as 3.3-fold (NPFF1). The “Highest concentration showing no agonist activity when tested alone, hNPFF1-R” value on NPFF1-R [4] is >10K ^f.

For the molecule `COc1cc(NC2(CNC(=O)CNC(=N)N)CCN(Cc3ccccc3)CC2)cc(OC)c1` [30b, N-((1-Benzyl-4-(3,5-dimethoxyphenylamino)piperidin-4-yl)methyl)-2-guanidinoacetamide Tritriflate], the “ratio, preference for NPFF1” value at NPFF1-R [3] is 8.7-fold (NPFF1). Besides, the “Highest concentration showing no agonist activity when tested alone, hNPFF1-R” value on NPFF1-R [4] is >10K ^f. With `COc1cccc(NC2(CNC(=O)CNC(=N)N)CCN(Cc3ccccc3)CC2)c1` [30c, N-((1-Benzyl-4-(3-methoxyphenylamino)piperidin-4-yl)methyl)-2-guanidinoacetamide Tritriflate], on NPFF1-R [3], the “ratio, preference for NPFF1” value is given as 4.4-fold (NPFF1).

`N=C(N)NCC(=O)NCC1(Nc2ccc(Cl)c(Cl)c2)CCN(Cc2ccccc2)CC1` [30d, N-((1-Benzyl-4-(3,4-dichlorophenylamino)piperidin-4-yl)methyl)-2-guanidinoacetamide Tritriflate]: at NPFF1-R [3], the “ratio, preference for NPFF1” value is given as 2.1-fold (NPFF1). As for `N=C(N)NCC(=O)NCC1(Nc2ccccc2)CCN(CC2CCCCC2)CC1` [49b, N-((1-(Cyclohexylmethyl)-4-(phenylamino)piperidin-4-yl)methyl)-2-guanidinoacetamide Tritriflate], the “fold loss of affinity at NPFF1-R relative to lead 21” value at NPFF1-R [3] is 5 fold. For the same molecule, the “fold gain of affinity at NPFF2-R compared with lead 21” value (“fold gain of affinity at NPFF2-R” below) at NPFF2-R [5] is 1.2–3.1 fold. Take `N=C(N)NCC(=O)NCC1(Nc2ccccc2)CCN(CCc2ccccc2)CC1` [49c, 2-Guanidino-N-((1-phenethyl-4-(phenylamino)piperidin-4-yl)methyl)acetamide Tritriflate]: the “fold gain of affinity at NPFF2-R” value at NPFF2-R [5] is given as 1.2–3.1 fold. As for `N=C(N)NCC(=O)NCC1(Nc2ccccc2)CCN(Cc2cccc3ccccc23)CC1` [49d, 2-Guanidino-N-((1-(naphthalen-1-ylmethyl)-4-(phenylamino)piperidin-4-yl)methyl)acetamide Tritriflate], at NPFF2-R [5], the “fold gain of affinity at NPFF2-R” value is reported as 1.2–3.1 fold. In the case of `N=C(N)NCC(=O)NCC1(Nc2ccccc2)CCN(Cc2ccc3ccccc3c2)CC1` [49e, 2-Guanidino-N-((1-(naphthalen-2-ylmethyl)-4-(phenylamino)piperidin-4-yl)methyl)acetamide Tritriflate], the “fold gain of affinity at NPFF1-R compared with lead 21” value (from here on “fold gain of affinity at NPFF1-R”) on NPFF1-R [3] was 2.3–2.8 fold. As for `N=C(N)NCC(=O)NCC1(Nc2ccccc2)CCN(Cc2ccc(Br)cc2)CC1` [49f, N-((1-(4-Bromobenzyl)-4-(phenylamino)piperidin-4-yl)methyl)-2-guanidinoacetamide Tritriflate], the “fold gain of affinity at NPFF1-R” value at NPFF1-R [3] was 2.3–2.8 fold. Turning to `N=C(N)NCC(=O)NCC1(Cc2cccc3ccccc23)CCN(Cc2ccccc2)CC1` [53a, N-((1-Benzyl-4-(naphthalen-1-ylmethyl)piperidin-4-yl)methyl)-2-guanidinoacetamide Tritriflate], the “Activity alone at NPFF1-R” value at NPFF1-R [4] was “low activity”. Moreover, at NPFF2-R [5], the “fold gain of affinity at NPFF2-R” value was determined as 14 fold and the “fold increase in affinity at NPFF2-R relative to lead 42” value came out at 2.8 fold. For the same molecule, the “Activity alone at NPFF2-R” value at NPFF2-R [6] is reported as “low activity”. On to `N=C(N)NCC(=O)NCC1(Cc2ccc(Cl)c(Cl)c2)CCN(Cc2ccccc2)CC1` [53b, N-((1-Benzyl-4-(3,4-dichlorobenzyl)piperidin-4-yl)methyl)-2-guanidinoacetamide Ditriflate], for which the “fold loss of affinity at NPFF2-R relative to 53a” value on NPFF2-R [5] is 2.7 fold. As to `N=C(N)NCC(=O)NCC1(Cc2ccc3ccccc3c2)CCN(Cc2ccccc2)CC1` [53c, N-((1-Benzyl-4-(naphthalen-2-ylmethyl)piperidin-4-yl)methyl)-2-guanidinoacetamide Ditriflate], on NPFF2-R [5], the “fold loss of affinity at NPFF2-R relative to 53a” value came out at 6.8 fold and the “ratio, preference for NPFF2” value was 1.5-fold (NPFF2). With `N=C(N)NCC(=O)NCC1(Cc2ccc(-c3ccccc3)cc2)CCN(Cc2ccccc2)CC1` [53d, N-((1-Benzyl-4-(biphenyl-4-ylmethyl)piperidin-4-yl)methyl)-2-guanidinoacetamide Ditriflate], the “ratio, preference for NPFF1” value on NPFF1-R [3] is 3-fold (NPFF1). At NPFF2-R [5], the “fold loss of affinity at NPFF2-R relative to 53a” value turned out to be 30 fold. In the case of `N=C(N)NCCC[C@H](N)C(=O)NCC1CCN(Cc2ccccc2)CC1` [compound 15, 2-Amino-N-((1-benzylpiperidin-4-yl)methyl)-5-guanidinopentanamide Hydrochloride], the “fold loss of affinity at NPFF2-R relative to 7b” value on NPFF2-R [7] worked out at 7 fold.

`N=C(N)NCC(=O)NCC1(Nc2ccccc2)CCN(Cc2ccccc2)CC1` [compound 21, N-((1-Benzyl-4-(phenylamino)piperidin-4-yl)methyl)-2-guanidinoacetamide tritriflate]: the “fold increase in affinity at NPFF1-R compared with lead 7b” value at NPFF1-R [3] came to 1.5 fold. In addition, on NPFF1-R [4], the “Agonist activity alone at NPFF1-R” value is on record as “weak partial agonist activity”. Besides, the “fold increase in affinity at NPFF2-R compared with lead 7b” value on NPFF2-R [5] came to 2.6 fold. At NPFF2-R [6], the “% inhibition of forskolin-stimulated cAMP accumulation (cyclase) at NPFF2-R” value was 20–25 ^e % and the “Agonist activity alone at NPFF2-R” value is listed as “weak partial agonist activity”. With `N=C(N)NCC(=O)NCC1(c2ccccc2)CCN(Cc2ccccc2)CC1` [compound 34, N-((1-Benzyl-4-phenylpiperidin-4-yl)methyl)-2-guanidinoacetamide Ditriflate], at NPFF1-R [3], the “fold loss of affinity at NPFF1-R relative to lead 21” value is given as 1.6 fold and the “ratio, preference for NPFF1” value is reported as 6.9-fold (NPFF1). Moreover, the “fold loss of affinity at NPFF2-R relative to lead 21” value on NPFF2-R [5] was found to be 8.7 fold. Turning to `N=C(N)NCC(=O)NCC1(Cc2ccccc2)CCN(Cc2ccccc2)CC1` [compound 42, N-((1,4-Dibenzylpiperidin-4-yl)methyl)-2-guanidinoacetamide Ditriflate], the “fold gain of affinity at NPFF2-R” value on NPFF2-R [5] worked out at 5 fold. Moreover, the “Highest concentration showing no agonist activity when tested alone, hNPFF2-R” value at NPFF2-R [6] stood at 1K ^f. For the molecule `N=C(N)NCC(=O)NCC1(CCc2ccccc2)CCN(Cc2ccccc2)CC1` [compound 43, N-((1-Benzyl-4-phenethylpiperidin-4-yl)methyl)-2-guanidinoacetamide Ditriflate], the “ratio, preference for NPFF1” value on NPFF1-R [3] is 3-fold (NPFF1). Also, the “fold loss of affinity at NPFF2-R relative to 42” value on NPFF2-R [5] was 5.5 fold. On to `N=C(N)NCCNC(=O)C1(Nc2ccccc2)CCN(Cc2ccccc2)CC1` [compound 46, 1-Benzyl-N-(2-guanidinoethyl)-4-(phenylamino)piperidine-4-carboxamide Tritriflate], for which, at NPFF1-R [3], the “fold gain of affinity at NPFF1-R” value is 4 fold.

AGEGLSSPFWSLAAPQRFa [hNPAF]: the “selectivity for the hNPFF2 subtype” value with NPFF2-R [8] is 10.1 fold.

As for FLFQPQRFa [NPFF], the Ki in assay [9] was 0.21 nM. Consider “SLNFEELKDWGPKNVIKMSTPAVNKMPHSFANLPLRFa [hNPSF]”, for which the “selectivity for the hNPFF2 subtype” value on NPFF2-R [8] is 1.2 fold. As for “SQAFLFQPQRFa (SQAFLFQPQRF-NH2; UniProt O15130 66-76, looked up) [hNPFF]”, the “selectivity for the hNPFF2 subtype” value with NPFF2-R [8] is 10.7 fold. Regarding n-adamantanecarbonyl-Arg-Phe-NH2 [RF9], the “cAMP hNPFF1-R Emax, %” value on NPFF1-R [4] is listed as 79 ± 5 ^c %. Also, the Ki on NPFF2-R [8] (read-out: hNPFF2-R Ki, radioligand displacement assays) is 75 ± 9 nM; on NPFF1-R [11], 58 ± 5 nM. For the same molecule, on NPFF1-R [10], the EC50 is 4700 ± 1200 nM.

The term Ki denotes the equilibrium dissociation constant of an inhibitor or competing ligand from its target. In general, EC50 refers to the concentration giving half of the maximal effect.
